Square brackets hold non-standard residues; d marks the D form. Peptide text beside a SMILES is read from it. * marks the point of attachment. Phe(4-NO2) = N[C@@H](Cc1ccc([N+](=O)[O-])cc1)C(=O)O; Phe(3,4-Cl2) = N[C@@H](Cc1ccc(Cl)c(Cl)c1)C(=O)O; Phe(F5) = N[C@@H](Cc1c(F)c(F)c(F)c(F)c1F)C(=O)O; Myristoyl = CCCCCCCCCCCCCC(=O)*; Nle = CCCC[C@H](N)C(=O)O; Sar = CNCC(=O)O
Legend:
rat PrRP receptor = molecular target: T1, rat PrRP receptor (Rattus norvegicus, UniProt Q64121); assay: Competitive binding in RC-4B/C rat pituitary cells (125I-rat PrRP31); conditions: for Ki: RC-4B/C cells, displacement of 125I-rat PrRP31, read-out: Ki, RC-4B/C rat pituitary cells ^25I-rat PrRP31; for % of PrRP31, RC-4B/C rat pituitary cells: affinity relative to PrRP31
T1 construct: host or cells: RC-4B/C rat pituitary cell line
T1 sequence (Q64121 1-370): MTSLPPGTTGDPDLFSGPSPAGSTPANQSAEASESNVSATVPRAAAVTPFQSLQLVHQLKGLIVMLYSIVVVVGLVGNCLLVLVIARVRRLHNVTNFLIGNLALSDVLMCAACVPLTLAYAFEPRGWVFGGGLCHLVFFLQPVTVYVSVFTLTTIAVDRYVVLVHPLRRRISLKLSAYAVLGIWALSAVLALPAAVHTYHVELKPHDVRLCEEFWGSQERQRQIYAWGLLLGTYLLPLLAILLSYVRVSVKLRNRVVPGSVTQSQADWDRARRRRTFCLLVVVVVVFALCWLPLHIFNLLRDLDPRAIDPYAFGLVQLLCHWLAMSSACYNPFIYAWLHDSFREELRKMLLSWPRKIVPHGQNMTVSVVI
Protocol: (§1) Competitive binding experiments were performed according to Motulsky and Neubig (Motulsky, A., et al., “Analyzing radioligand binding data,” Curr Protoc Neurosci, Chapter 7, Unit 7.5, 2002). Binding experiments were conducted with rat pituitary cells, and with Chinese Hamster Ovary (CHO) cells as follows:
The rat pituitary cell line RC-4B/C (ATCC, Manassas, USA) was grown on 24-well plates which had their bottom coated with polyethyleneimine. The cells were grown to the optimal density of 300-450 thousand cells per well. The following agents were used for the experiment: binding buffer (20 mmol·l^−1 HEPES, Ph 7.4; 118 mmol·l^−1 NaCl, 4.7 mmol·l^−1 KCl, 5 mmol·l^−1 MgCl2, 5.5 mmol·l^−1 glucose, 1 mg/ml BSA, 0.1 BPTI), unlabeled analogs of PrRP (i.e. the analog being tested) at a final concentration between 10^−11 to 10^−4 mol·l^−1, and rat ^125I-PrRP31 (labeled with radioactive Iodine-125) at a final concentration of […] (Maixnerová et al., 2011).
(§2) Plates were incubated for 60 minutes at room temperature. After incubation, the cells were solubilized in 0.1 mol/l solution of NaOH, and the radioactivity bound to the cells was counted using a γ-counter. The experiments were performed in duplicate, and repeated at least three times.
(§3) Graph Pad Prism Software (San Diego, Calif., USA) was used for evaluating the competitive binding experiments. Nonlinear regression was performed using a onsite binding model.

[1] = molecular target: T2, human PrRP receptor GPR10 (Homo sapiens, UniProt P49683); assay: Competitive binding in CHO cells transfected with human GPR10 (human 125I-PrRP31); conditions: for Ki: CHO cells, human 125I-PrRP31, read-out: Ki, GPR10 human receptor transfected in CHO cells; for % of PrRP31, GPR10 human receptor transfected in CHO cells: affinity relative to PrRP31
T2 construct: host or cells: CHO cells
T2 sequence (P49683 1-370): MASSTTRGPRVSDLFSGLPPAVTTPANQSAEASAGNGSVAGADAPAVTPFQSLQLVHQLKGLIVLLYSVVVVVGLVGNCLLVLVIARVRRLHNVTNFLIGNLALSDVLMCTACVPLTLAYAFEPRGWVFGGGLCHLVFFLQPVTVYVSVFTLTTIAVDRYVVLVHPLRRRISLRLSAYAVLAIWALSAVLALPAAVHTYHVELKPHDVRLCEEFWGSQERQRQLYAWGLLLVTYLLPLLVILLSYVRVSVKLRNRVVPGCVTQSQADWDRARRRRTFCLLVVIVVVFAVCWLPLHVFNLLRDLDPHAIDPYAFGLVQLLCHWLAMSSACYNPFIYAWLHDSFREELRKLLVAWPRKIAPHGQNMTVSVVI
Protocol: as §1
CHO cells transfected with human PrRP receptor GPR10 (Perkin Elmer, USA) were grown on 24-well plates coated with polyethyleneimine. The cells were grown to the optimal density of 40-80 thousand cells per well. The following agents were used for the experiment: binding buffer (25 mmol·l^−1 Tris, pH 7.4; 118 mmol·l^−1 NaCl, 10 mmol·l^−1 MgCl2, 10 mmol·l^−1 CaCl2, 5.5 mmol·l^−1 glucose, 0.5 mg/ml BSA), unlabeled analogs of PrRP (i.e. the analog being tested) at a final concentration between 10^−11 to 10^−4 mol·l^−1, and radiolabeled human ^125I-PrRP31 at a final concentration of 5×10^−11 mol·l^−1.
as §2, §3

| Compound | Ki (rat PrRP receptor) [nM] | % of PrRP31, RC-4B/C rat pituitary cells (rat PrRP receptor) [%] | Ki [1] [nM] | % of PrRP31, GPR10 human receptor transfected in CHO cells [1] [%] |
| --- | --- | --- | --- | --- |
| CCCC[C@H](NC(=O)[C@H](CO)NC(=O)[C@H](Cc1c[nH]cn1)NC(=O)[C@H](CCC(N)=O)NC(=O)[C@H](Cc1c[nH]cn1)NC(=O)[C@H](C)NC(=O)[C@H](CCCNC(=N)N)NC(=O)[C@@H](N)CO)C(=O)N[C@@H](CCC(=O)O)C(=O)N[C@H](C(=O)N[C@@H](CCCNC(=N)N)C(=O)N[C@H](C(=O)N1CCC[C@H]1C(=O)N[C@@H](CC(=O)O)C(=O)N[C@H](C(=O)N[C@@H](CC(N)=O)C(=O)N1CCC[C@H]1C(=O)N[C@@H](C)C(=O)N[C@@H](Cc1c[nH]c2ccccc12)C(=O)N[C@@H](Cc1ccc(O)cc1)C(=O)N[C@H](C(=O)NCC(=O)N[C@@H](CCCNC(=N)N)C(=O)NCC(=O)N[C@H](C(=O)N[C@@H](CCCNC(=N)N)C(=O)N1CCC[C@H]1C(=O)N[C@H](C(=O)NCC(=O)N[C@@H](CCCNC(=N)N)C(=O)N[C@@H](Cc1ccc(Cl)c(Cl)c1)C(N)=O)C(C)C)[C@@H](C)CC)[C@@H](C)O)[C@@H](C)CC)[C@@H](C)O)[C@@H](C)O [Analog 13] (H-SRAHQHS[Nle]ETRTPDINPAWYTGRGIRPVGR[Phe(3,4-Cl2)]-NH2; N-terminus assumed) | 3.84 ± 0.93 | 128 | 2.27 ± 0.48 | 171 |
| CCCC[C@H](NC(=O)[C@H](CO)NC(=O)[C@H](Cc1c[nH]cn1)NC(=O)[C@H](CCC(N)=O)NC(=O)[C@H](Cc1c[nH]cn1)NC(=O)[C@H](C)NC(=O)[C@H](CCCNC(=N)N)NC(=O)[C@@H](N)CO)C(=O)N[C@@H](CCC(=O)O)C(=O)N[C@H](C(=O)N[C@@H](CCCNC(=N)N)C(=O)N[C@H](C(=O)N1CCC[C@H]1C(=O)N[C@@H](CC(=O)O)C(=O)N[C@H](C(=O)N[C@@H](CC(N)=O)C(=O)N1CCC[C@H]1C(=O)N[C@@H](C)C(=O)N[C@@H](Cc1c[nH]c2ccccc12)C(=O)N[C@@H](Cc1ccc(O)cc1)C(=O)N[C@H](C(=O)NCC(=O)N[C@@H](CCCNC(=N)N)C(=O)NCC(=O)N[C@H](C(=O)N[C@@H](CCCNC(=N)N)C(=O)N1CCC[C@H]1C(=O)N[C@H](C(=O)NCC(=O)N[C@@H](CCCNC(=N)N)C(=O)N[C@@H](Cc1ccc([N+](=O)[O-])cc1)C(N)=O)C(C)C)[C@@H](C)CC)[C@@H](C)O)[C@@H](C)CC)[C@@H](C)O)[C@@H](C)O [Analog 16] (H-SRAHQHS[Nle]ETRTPDINPAWYTGRGIRPVGR[Phe(4-NO2)]-NH2; N-terminus assumed) | 19.9 ± 5.9 | 2.5 | 4.8 ± 0.88 | 81 |
| CCCCCCCCCCCCCC(=O)N[C@@H](CO)C(=O)N[C@@H](CCCNC(=N)N)C(=O)N[C@@H](C)C(=O)N[C@@H](Cc1c[nH]cn1)C(=O)N[C@@H](CCC(N)=O)C(=O)N[C@@H](Cc1c[nH]cn1)C(=O)N[C@@H](CO)C(=O)N[C@@H](CCCC)C(=O)N[C@@H](CCC(=O)O)C(=O)N[C@H](C(=O)N[C@@H](CCCNC(=N)N)C(=O)N[C@H](C(=O)N1CCC[C@H]1C(=O)N[C@@H](CC(=O)O)C(=O)N[C@H](C(=O)N[C@@H](CC(N)=O)C(=O)N1CCC[C@H]1C(=O)N[C@@H](C)C(=O)N[C@@H](Cc1c[nH]c2ccccc12)C(=O)N[C@@H](Cc1ccc(O)cc1)C(=O)N[C@H](C(=O)NCC(=O)N[C@@H](CCCNC(=N)N)C(=O)NCC(=O)N[C@H](C(=O)N[C@@H](CCCNC(=N)N)C(=O)N1CCC[C@H]1C(=O)N[C@H](C(=O)NCC(=O)N[C@@H](CCCNC(=N)N)C(=O)N[C@@H](Cc1ccc([N+](=O)[O-])cc1)C(N)=O)C(C)C)[C@@H](C)CC)[C@@H](C)O)[C@@H](C)CC)[C@@H](C)O)[C@@H](C)O [Analog 17] (Myristoyl-SRAHQHS[Nle]ETRTPDINPAWYTGRGIRPVGR[Phe(4-NO2)]-NH2) | 1.97 ± 1.26 | 250 | 1.59 ± 1.05 | 245 |
| CCCC[C@H](NC(=O)[C@H](CO)NC(=O)[C@H](Cc1c[nH]cn1)NC(=O)[C@H](CCC(N)=O)NC(=O)[C@H](Cc1c[nH]cn1)NC(=O)[C@H](C)NC(=O)[C@H](CCCNC(=N)N)NC(=O)[C@@H](N)CO)C(=O)N[C@@H](CCC(=O)O)C(=O)N[C@H](C(=O)N[C@@H](CCCNC(=N)N)C(=O)N[C@H](C(=O)N1CCC[C@H]1C(=O)N[C@@H](CC(=O)O)C(=O)N[C@H](C(=O)N[C@@H](CC(N)=O)C(=O)N1CCC[C@H]1C(=O)N[C@@H](C)C(=O)N[C@@H](Cc1c[nH]c2ccccc12)C(=O)N[C@@H](Cc1ccc(O)cc1)C(=O)N[C@H](C(=O)NCC(=O)N[C@@H](CCCNC(=N)N)C(=O)NCC(=O)N[C@H](C(=O)N[C@@H](CCCNC(=N)N)C(=O)N1CCC[C@H]1C(=O)N[C@H](C(=O)NCC(=O)N[C@@H](CCCNC(=N)N)C(=O)N[C@@H](Cc1c(F)c(F)c(F)c(F)c1F)C(N)=O)C(C)C)[C@@H](C)CC)[C@@H](C)O)[C@@H](C)CC)[C@@H](C)O)[C@@H](C)O [Analog 21] (H-SRAHQHS[Nle]ETRTPDINPAWYTGRGIRPVGR[Phe(F5)]-NH2) | – | 51 | – | 45 |
| CCCC[C@H](NC(=O)[C@H](CO)NC(=O)[C@H](Cc1c[nH]cn1)NC(=O)[C@H](CCC(N)=O)NC(=O)[C@H](Cc1c[nH]cn1)NC(=O)[C@H](C)NC(=O)[C@H](CCCNC(=N)N)NC(=O)[C@@H](N)CO)C(=O)N[C@@H](CCC(=O)O)C(=O)N[C@H](C(=O)N[C@@H](CCCNC(=N)N)C(=O)N[C@H](C(=O)N1CCC[C@H]1C(=O)N[C@@H](CC(=O)O)C(=O)N[C@H](C(=O)N[C@@H](CC(N)=O)C(=O)N1CCC[C@H]1C(=O)N[C@@H](C)C(=O)N[C@@H](Cc1c[nH]c2ccccc12)C(=O)N[C@@H](Cc1ccc(O)cc1)C(=O)N[C@H](C(=O)NCC(=O)N[C@@H](CCCNC(=N)N)C(=O)NCC(=O)N[C@H](C(=O)N[C@@H](CCCNC(=N)N)C(=O)N1CCC[C@H]1C(=O)N[C@H](C(=O)NCC(=O)N[C@@H](CCCNC(=N)N)C(=O)N[C@@H](Cc1ccc(O)cc1)C(N)=O)C(C)C)[C@@H](C)CC)[C@@H](C)O)[C@@H](C)CC)[C@@H](C)O)[C@@H](C)O [Analog 23] (H-SRAHQHS[Nle]ETRTPDINPAWYTGRGIRPVGRY-NH2) | – | 152 | – | 193 |
| CC[C@H](C)[C@H](NC(=O)CN(C)C(=O)[C@H](CCCNC(=N)N)NC(=O)CNC(=O)[C@@H](NC(=O)[C@H](Cc1ccc(O)cc1)NC(=O)[C@H](Cc1c[nH]c2ccccc12)NC(=O)[C@H](C)NC(=O)[C@@H]1CCCN1C(=O)[C@H](CC(N)=O)NC(=O)[C@@H](NC(=O)[C@H](CC(=O)O)NC(=O)[C@@H]1CCCN1C(=O)[C@@H](N)[C@@H](C)O)[C@@H](C)CC)[C@@H](C)O)C(=O)N[C@@H](CCCNC(=N)N)C(=O)N1CCC[C@H]1C(=O)N[C@H](C(=O)NCC(=O)N[C@@H](CCCNC(=N)N)C(=O)N[C@@H](Cc1ccccc1)C(N)=O)C(C)C [Analog 27] (H-TPDINPAWYTGR[Sar]IRPVGRF-NH2) | – | 62 | – | 86 |

— US10350271B2, “Lipidated peptides for lowering blood glucose” (USTAV ORGANICKE CHEMIE A BIOCHEMIE AKADEMIE VED CR, V.V.I., priority 2014, dated 2019)
